In US10646570B2, “Induced photodynamic therapy using nanoparticle scintillators as transducers” (UNIVERSITY OF GEORGIA RESEARCH FOUNDATION, INC., priority 2014, dated 2020):

Experiment: 1O2 production in solutions, SOSG indicator, X-ray irradiation
Conditions: either with or without X-ray
Method: 1 mL of 0.05 mg M-SAO@SiO2/mL was added in a quartz cuvette (equilibrated with air at room temperature) containing 1 μM of SOSG. For controls, SAO, MC540, and water were analyzed. The solutions were irradiated by X-ray (at an irradiance of 1 Sv/h for 20 min, with a 1-min intermission after each 5-min irradiation cycle. The fluorescence signals (ex/em: 504/525 nm) were measured on a Hitachi F-7000 fluorescence spectrophotometer.
There is a significant overlap between the XEOL of SAO and the excitation wavelength of MC540 (FIG. 9A). Therefore, the ability of M-SAO@SiO2 nanoparticles irradiated by X-ray to relay energy in the form of visible photons to MC540 and as a result, producing ^1O2 was investigated. A common ^1O2 indicator, singlet oxygen sensor green (SOSG, Invitrogen) was used to investigate this effect. SOSG is a fluorescent compound which undergoes a structural change in the presence of ^1O2. The process is accompanied by an increase of fluorescence (ex/em: 504/525 nm). Therefore, by measuring the fluorescence change, the ^1O2 generation in solutions or cells can be monitored. Using SOSG, ^1O2 generation with a M-SAO@SiO2 nanoparticle solution (50 μg/mL) under X-ray irradiation was studied (1 Sv/h, FIG. 9B). Compared to the background, the intensity of 525 nm fluorescence was increased by 8, 25, 35, and 45% after 5, 10, 15, and 20 min X-ray irradiation, respectively (FIG. 9B).

CCCCN1C(=O)C(=C/C=C/C=C2\Oc3ccccc3N2CCCS(=O)(=O)[O-])C(=O)N(CCCC)C1=S.[Na+] [MC540, merocyanine 540]
increase in fluorescence (1O2, SOSG): minimal increase in fluorescence
